In patent US20120083522A1, “MODULATION OF INFLAMMATORY RESPONSES BY FACTOR XI” (Isis Pharmaceuitcals, inc., priority 2009, published 2012):
In the oligonucleotide strings, read from the 5' end, every base follows the letter of its sugar. An asterisk marks phosphorothioate; unmarked linkages are phosphodiester. Other units and linkages are bracketed, terminal groups are in braces. A string of capitals states the bases alone. e = 2'-O-(2-methoxyethyl) (MOE); [5mC] = 5-methylcytosine; d = 2'-deoxy (DNA)

How the values were obtained:
[1] = system: mouse Factor XI mRNA; test: Cross-reactive antisense inhibition in primary mouse hepatocytes, 100 nM (Example 9); format: cell-based; settings: approx. 24 h, percent inhibition relative to untreated control cells
Description: Antisense oligonucleotides targeted to a murine Factor XI nucleic acid were tested for their effects on Factor XI mRNA in vitro. Cultured primary mouse hepatocytes at a density of 10,000 cells per well were treated with 100 nM antisense oligonucleotide. After a treatment period of approximately 24 hours, RNA was isolated from the cells and mouse Factor XI mRNA levels were measured by quantitative real-time PCR. Factor XI mRNA levels were adjusted according to total RNA content, as measured by RIBOGREEN®. Results are presented as percent inhibition of Factor XI, relative to untreated control cells.
The chimeric antisense oligonucleotides in Tables 16 were designed as 5-10-5 MOE gapmers. The gapmers are 20 nucleotides in length, wherein the central gap segment is comprised of 10 2′-deoxynucleotides and is flanked on both sides (in the 5′ and 3′ directions) by wings comprising 5 nucleotides each. Each nucleotide in the 5′ wing segment and each nucleotide in the 3′ wing segment has a 2′-MOE modification. The internucleoside linkages throughout each gapmer are phosphorothioate (P═S) linkages. All cytidine residues throughout each gapmer are 5-methylcytidines. “Mouse target start site” indicates the 5′-most nucleotide to which the gapmer is targeted. “Mouse target stop site” indicates the 3′-most nucleotide to which the gapmer is targeted. All the mouse oligonucleotides listed show cross-reactivity between the mouse Factor XI mRNA (GENBANK Accession No. NM_028066.1), incorporated herein as SEQ ID NO: 6 and the human Factor XI mRNA (GENBANK Accession No. NM_000128.3), incorporated herein as SEQ ID NO: 1. “Human Target Start Site” indicates the 5′-most nucleotide in the human mRNA (GENBANK Accession No. NM_000128.3) to which the antisense oligonucleotide is targeted. “Human Target Stop Site” indicates the 3′-most nucleotide in the human mRNA (GENBANK Accession No. NM_000128.3) to which the antisense oligonucleotide is targeted. “Number of mismatches” indicates the mismatches between the mouse oligonucleotide and the human mRNA sequence.

[2] = system: human Factor XI mRNA; test: Dose-dependent inhibition in HepB3 cells, lipofectin (Example 7); format: cell-based; settings: approx. 16 h
Description: Cells were plated at a density of 4,000 cells per well and transfected using lipofectin reagent with 2.3 nM, 4.7 nM, 9.4 nM, 18.75 nM, 37.5 nM, and 75 nM concentrations of antisense oligonucleotide, as specified in Table 14. After a treatment period of approximately 16 hours, RNA was isolated from the cells and human Factor XI mRNA levels were measured by quantitative real-time PCR. Human Factor XI primer probe set RTS 2966 was used to measure mRNA levels. Factor XI mRNA levels were adjusted according to total RNA content, as measured by RIBOGREEN®. Results are presented as percent inhibition of Factor XI, relative to untreated control cells.

[3] = system: human Factor XI mRNA; test: Dose-dependent inhibition in HepG2 cells, lipofectin (Example 5); format: cell-based; settings: 16 hours
Description: Cells were plated at a density of 10,000 cells per well and transfected using lipofectin reagent with 2.34 nM, 4.69 nM, 9.375 nM, 18.75 nM, 37.5 nM, and 75 nM concentrations of antisense oligonucleotide, as specified in Table 11. After a treatment period of approximately 16 hours, RNA was isolated from the cells and human Factor XI mRNA levels were measured by quantitative real-time PCR. Human Factor XI primer probe set RTS 2966 was used to measure mRNA levels. Factor XI mRNA levels were adjusted according to total RNA content, as measured by RIBOGREEN®. Results are presented as percent inhibition of human Factor XI, relative to untreated control cells.

[4] = system: human Factor XI mRNA; test: Dose-dependent inhibition in HepG2 cells, electroporation (Example 5); format: cell-based; settings: approx. 16 h, relative to untreated control cells
Description: The gapmers were also transfected via electroporation and their dose dependent inhibition of human Factor XI mRNA was measured. Cells were plated at a density of 20,000 cells per well and transfected via electroporation with 625 nM, 1250 nM, 2500 nM, 5,000 nM, 10,000 nM, and 20,000 nM concentrations of antisense oligonucleotide, as specified in Table 12. After a treatment period of approximately 16 hours, RNA was isolated from the cells and human Factor XI mRNA levels were measured by quantitative real-time PCR. Human Factor XI primer probe set RTS 2966 was used to measure mRNA levels. Factor XI mRNA levels were adjusted according to total RNA content, as measured by RIBOGREEN®. Results are presented as percent inhibition of human Factor XI, relative to untreated control cells.

[5] = Tolerability in Sprague-Dawley rats: kidney function (Example 19); format: in vivo; settings: Sprague Dawley rats
Source text: (§1) Urine samples were taken before the start of treatment.

[6] = system: human Factor XI mRNA; test: Dose-dependent inhibition in HepG2 cells, electroporation (Example 4); format: cell-based; settings: 16 hours
Summary of the method: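 HepG2 cells electroporated with 0.7, 2.2, 6.7 or 20 μM antisense gapmer and harvested after ~16 h. Factor XI mRNA quantified by qRT-PCR (primer probe set RTS 2966), normalised to total RNA (RIBOGREEN). Reported as percent inhibition versus untreated control cells.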

[7] = Tolerability in Sprague-Dawley rats: body and organ weight (Example 19); format: in vivo; settings: 50 mg/kg s.c. twice per week for 6 weeks, change over weight at start of study
Source text: as §1
The body weights are presented in Table 78 and are expressed as a percent change over the weights taken at the start of the study.

[8] = system: human Factor XI mRNA; test: Dose-dependent inhibition in HepG2 cells, lipofectin (Example 4); format: cell-based; settings: 16 hours
Summary of the method: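 HepG2 cells at 10,000 per well were lipofectin-transfected with 9.375, 18.75, 37.5 or 75 nM antisense oligonucleotide for about 16 h. Factor XI mRNA was quantified by real-time PCR (primer probe set RTS 2966) and normalised to RIBOGREEN total RNA. Values are percent inhibition versus untreated cells.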

[9] = system: human Factor XI mRNA; test: Dose-dependent inhibition in HepB3 cells, electroporation (Example 7); format: cell-based; settings: approx. 16 h
Description: The gapmers were also transfected via electroporation and their dose dependent inhibition of human Factor XI mRNA was measured. Cells were plated at a density of 20,000 cells per well and transfected via electroporation with 41.15 nM, 123.457 nM, 370.37 nM, 1111.11 nM, 3333.33 nM, and 10,000 nM concentrations of antisense oligonucleotide, as specified in Table 15. After a treatment period of approximately 16 hours, RNA was isolated from the cells and human Factor XI mRNA levels were measured by quantitative real-time PCR. Human Factor XI primer probe set RTS 2966 was used to measure mRNA levels. Factor XI mRNA levels were adjusted according to total RNA content, as measured by RIBOGREEN®. Results are presented as percent inhibition of human Factor XI, relative to untreated control cells.

[10] = system: human Factor XI mRNA; test: Dose-dependent inhibition in cyno primary hepatocytes, electroporation (Example 6); format: cell-based, cynomolgus monkey; settings: approx. 16 h
Description: Cells were plated at a density of 35,000 cells per well and transfected via electroporation with 0.74 nM, 2.2 nM, 6.7 nM, 20 nM, 60 nM, and 180 nM concentrations of antisense oligonucleotide, as specified in Table 13. After a treatment period of approximately 16 hours, RNA was isolated from the cells and human Factor XI mRNA levels were measured by quantitative real-time PCR. Human Factor XI primer probe set RTS 2966 was used to measure mRNA levels. Factor XI mRNA levels were adjusted according to total RNA content, as measured by RIBOGREEN®. Results are presented as percent inhibition of human Factor XI, relative to untreated control cells.

In the case of “404083 (antisense eT*eG*eT*eG*e[5mC]*dA*dG*dA*dG*dT*d[5mC]*dA*d[5mC]*d[5mC]*dT*eG*e[5mC]*e[5mC]*eA*eT) [compound 404083]”, the “Inhibition of mouse Factor XI mRNA levels (column headed SEQ ID No.)” value (shortened to “Inhibition … (column headed SEQ ID No.)”) [1] is reported as 47.

For “404087 (antisense eT*eT*e[5mC]*eT*eT*dG*dA*dA*d[5mC]*d[5mC]*d[5mC]*dT*dG*dA*dA*eG*eA*eA*eA*eG) [compound 404087]”, the “Inhibition … (column headed SEQ ID No.)” value [1] was 29.

For “404089 (antisense eT*eG*eA*eA*eT*dT*dA*dT*d[5mC]*dA*dT*dT*dT*d[5mC]*dT*eT*eG*eA*eA*e[5mC]) [compound 404089]”, the “Inhibition … (column headed SEQ ID No.)” value [1] was 6.

In the case of “404090 (antisense eT*eG*eA*eT*e[5mC]*dA*dT*dG*dA*dA*dT*dT*dA*dT*d[5mC]*eA*eT*eT*eT*e[5mC]) [compound 404090]”, the “Inhibition … (column headed SEQ ID No.)” value [1] is reported as 42.

In the case of “416892 (antisense GCCCTTCATGTCTAGGTCCA; 3-14-3 chimeric gapmer, wing sugar chemistry not given here, further chemistry not given here) [compound 416892]”, the “percent inhibition of human Factor XI mRNA” value ([2]; 2.3 nM) is reported as 28%, the “percent inhibition of human Factor XI mRNA” value ([2]; 4.7 nM) is reported as 34% and the “percent inhibition of human Factor XI mRNA” value ([2]; 9.4 nM) is reported as 50%. The “percent inhibition of human Factor XI mRNA” value ([2]; 18.75 nM) was 68%, the “percent inhibition of human Factor XI mRNA” value ([2]; 37.5 nM) was 82% and the “percent inhibition of human Factor XI mRNA” value ([2]; 75 nM) was 72%. The “percent inhibition of human Factor XI mRNA, relative to untreated control cells” value ([3]; 2.34 nM) was 14%, the “percent inhibition of human Factor XI mRNA, relative to untreated control cells” value ([3]; 4.69 nM) was 34% and the “percent inhibition of human Factor XI mRNA, relative to untreated control cells” value ([3]; 9.375 nM) was 49%. For the same substance, the “percent inhibition of human Factor XI mRNA, relative to untreated control cells” value ([3]; 18.75 nM) was 70%, the “percent inhibition of human Factor XI mRNA, relative to untreated control cells” value ([3]; 37.5 nM) was 84% and the “percent inhibition of human Factor XI mRNA, relative to untreated control cells” value ([3]; 75 nM) was 93%. For the same substance, the “percent inhibition of human Factor XI mRNA” value ([4]; 625 nM) was 66%, the “percent inhibition of human Factor XI mRNA” value ([4]; 1250 nM) was 86% and the “percent inhibition of human Factor XI mRNA” value ([4]; 2500 nM) was 96%. The “percent inhibition of human Factor XI mRNA” value ([4]; 5000 nM) was 97%, the “percent inhibition of human Factor XI mRNA” value ([4]; 10000 nM) was 100% and the “percent inhibition of human Factor XI mRNA” value ([4]; 20000 nM) was 100%. For the same substance, the “urine protein/creatinine ratio, After” value ([5]; after 50 mg/kg s.c. twice per week for 6 weeks) was 21.3, the “urine protein/creatinine ratio, Before” value ([5]; before antisense oligonucleotide treatment) was 0.8 and the “percent inhibition of Factor XI mRNA, relative to untreated control cells” value ([6]; 0.7 μM) was 14%. The “percent inhibition of Factor XI mRNA, relative to untreated control cells” value ([6]; 2.2 μM) was 52%, the “percent inhibition of Factor XI mRNA, relative to untreated control cells” value ([6]; 6.7 μM) was 82% and the “percent inhibition of Factor XI mRNA, relative to untreated control cells” value ([6]; 20 μM) was 92%. The “Percent change in Body weight” value [7] was −39%, the “percent inhibition of Factor XI mRNA, relative to untreated control cells” value ([8]; 9.375 nM) was 16% and the “percent inhibition of Factor XI mRNA, relative to untreated control cells” value ([8]; 18.75 nM) was 50%. The “percent inhibition of Factor XI mRNA, relative to untreated control cells” value ([8]; 37.5 nM) was 70%, the “percent inhibition of Factor XI mRNA, relative to untreated control cells” value ([8]; 75 nM) was 85% and the “percent inhibition of human Factor XI mRNA” value ([9]; 41.15 nM) was 9%. For the same substance, the “percent inhibition of human Factor XI mRNA” value ([9]; 123.457 nM) was 12%, the “percent inhibition of human Factor XI mRNA” value ([9]; 370.37 nM) was 28% and the “percent inhibition of human Factor XI mRNA” value ([9]; 1111.11 nM) was 65%. The “percent inhibition of human Factor XI mRNA” value ([9]; 3333.33 nM) was 89%, the “percent inhibition of human Factor XI mRNA” value ([9]; 10000 nM) was 98% and the “percent inhibition of human Factor XI mRNA” value ([10]; 0.74 nM) was 20%. For the same substance, the “percent inhibition of human Factor XI mRNA” value ([10]; 2.2 nM) was 20%, the “percent inhibition of human Factor XI mRNA” value ([10]; 6.7 nM) was 43% and the “percent inhibition of human Factor XI mRNA” value ([10]; 20 nM) was 62%. The “percent inhibition of human Factor XI mRNA” value ([10]; 60 nM) was 88% and the “percent inhibition of human Factor XI mRNA” value ([10]; 180 nM) was 92%.
